Test results published in patent publication US6737383B1, “Herbicidal oxadiazolidines” (priority 1999, dated 2004).

Legend:
blackgrass [1] = experiment: Test E blackgrass; assay type: in vivo, Alopecurus myosuroides; details: Preemergence
winter wheat [2] = experiment: Test E winter wheat; assay type: in vivo, Triticum aestivum; details: Preemergence
blackgrass [3] = experiment: Test B pre/postemergence blackgrass; assay type: in vivo, Alopecurus myosuroides
Method in brief: (§1)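 Response is a visual 0-to-10 score relative to untreated plants, where 0 means no effect and 10 means complete control, taken twelve to sixteen days after application. Treatments went onto soil at planting and onto foliage of 1- to 4-leaf plants, using a surfactant-containing non-phytotoxic solvent.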

velvetleaf = experiment: Test B pre/postemergence velvetleaf; assay type: in vivo, Abutilon theophrasti
Method in brief: as §1

bedstraw = experiment: Test B pre/postemergence bedstraw; assay type: in vivo, Galium aparine
Method in brief: as §1

wheat = experiment: Test B pre/postemergence wheat; assay type: in vivo, Triticum aestivum
Method in brief: as §1

winter wheat [4] = experiment: Test E winter wheat; assay type: in vivo, Triticum aestivum; details: Postemergence; for Plant response rating, Wheat (winter): 0 to 100 scale
Method in brief: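 Greenhouse test: compounds in non-phytotoxic solvent with surfactant; for postemergence, sprayed on plants at 1- to 4-leaf stage grown in 60:40 sandy loam/potting mix. Injury rated visually against untreated controls after about 21 to 28 days.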

green foxtail = experiment: Test E green foxtail; assay type: in vivo, Setaria viridis; details: Preemergence
Italian ryegrass = experiment: Test E Italian ryegrass; assay type: in vivo, Lolium multiflorum; details: Preemergence
wild oat = experiment: Test E wild oat; assay type: in vivo, Avena fatua; details: Preemergence
winter barley = experiment: Test E winter barley; assay type: in vivo, Hordeum vulgare; details: Preemergence
[5] = Rate 31 g/ha, 0 to 100 scale, 0 no effect, 100 complete control
[6] = Rate 62 g/ha, 0 to 100 scale, 0 no effect, 100 complete control
[7] = Rate 125 g/ha, 0 to 100 scale (0 no effect, 100 complete control)
[8] = Preemergence, Rate 62 g/ha, scale of 0 to 10 where 0 is no effect and 10 is complete control
[9] = Preemergence, Rate 250 g/ha, scale of 0 to 10 where 0 is no effect and 10 is complete control
[10] = Preemergence, Rate 500 g/ha, scale of 0 to 10 where 0 is no effect and 10 is complete control
[11] = Rate 62 g/ha, Postemergence, scale of 0 to 10 where 0 is no effect and 10 is complete control
[12] = Rate 125 g/ha, Postemergence, scale 0 to 10
[13] = Rate 125 g/ha, Preemergence, scale of 0 to 10 where 0 is no effect and 10 is complete control
[14] = Rate 500 g/ha, Postemergence, scale 0 to 10, 0 no effect, 10 complete control
[15] = Rate 125 g/ha, 0 is no effect, 100 is complete control
[16] = Rate 500 g/ha, 0 to 100 scale where 0 is no effect and 100 is complete control

[2H]C([2H])([2H])n1c(=O)on(C(=O)N(c2ccc(F)cc2)C(C)C)c1=O [Compound 245]
Plant response rating, Blackgrass (blackgrass [1]; [5]): 60
Plant response rating, Blackgrass (blackgrass [1]; [6]): 60
Plant response rating, Blackgrass (blackgrass [1]; [7]): 50
Plant response rating, Wheat (winter) (winter wheat [2]; [5]): 20
Plant response rating, Wheat (winter) (winter wheat [2]; [6]): 20
Plant response rating, Wheat (winter) (winter wheat [2]; [7]): 50
Blackgrass plant response rating (blackgrass [3]; [8]): 10
Blackgrass plant response rating (blackgrass [3]; [9]): 10
Plant response rating, Blackgrass (blackgrass [3]; [10]): 10
Blackgrass plant response rating (blackgrass [3]; [11]): 4
Blackgrass plant response rating (blackgrass [3]; [12]): 7
Blackgrass plant response rating (blackgrass [3]; [13]): 10
Plant response rating (0 to 10; 0 is no effect, 10 is complete control), Blackgrass (blackgrass [3]; Rate 250 g/ha, Postemergence): 7
Blackgrass plant response rating (blackgrass [3]; [14]): 8
Velvetleaf plant response rating (velvetleaf; [8]): 7
Velvetleaf plant response rating (velvetleaf; [9]): 10
Plant response rating, Velvetleaf (velvetleaf; [10]): 10
Velvetleaf plant response rating (velvetleaf; [11]): 3
Velvetleaf plant response rating (velvetleaf; [13]): 7
Velvetleaf plant response rating (velvetleaf; [14]): 7
Bedstraw plant response rating (bedstraw; [8]): 0
Bedstraw plant response rating (bedstraw; [9]): 9
Plant response rating, Bedstraw (bedstraw; [10]): 10
Bedstraw plant response rating (bedstraw; [11]): 3
Bedstraw plant response rating (bedstraw; [12]): 9
Bedstraw plant response rating (bedstraw; [13]): 2
Plant response rating (0 to 10; 0 is no effect, 10 is complete control), Bedstraw (bedstraw; Rate 250 g/ha, Postemergence): 9
Bedstraw plant response rating (bedstraw; [14]): 9
Wheat plant response rating (wheat; [8]): 6
Wheat plant response rating (wheat; [9]): 7
Plant response rating, Wheat (wheat; [10]): 9
Wheat plant response rating (wheat; [11]): 4
Wheat plant response rating (wheat; [13]): 6
Wheat plant response rating (wheat; [14]): 8
Plant response rating, Wheat (winter) (winter wheat [4]; Rate 31 g/ha, 0 no effect, 100 complete control): 0
Plant response rating, Wheat (winter) (winter wheat [4]; Rate 62 g/ha): 10
Plant response rating, Wheat (winter) (winter wheat [4]; [15]): 0
Plant response rating, Green foxtail (green foxtail; [5]): 60
Plant response rating, Green foxtail (green foxtail; [6]): 100
Plant response rating, Green foxtail (green foxtail; [7]): 100
Plant response rating, I. Ryegrass (Italian ryegrass; [5]): 20
Plant response rating, I. Ryegrass (Italian ryegrass; [6]): 40
Plant response rating, I. Ryegrass (Italian ryegrass; [7]): 60
Plant response rating, Wild oat (wild oat; [5]): 30
Plant response rating, Wild oat (wild oat; [6]): 40
Plant response rating, Wild oat (wild oat; [7]): 30
Plant response rating, Barley (winter) (winter barley; [5]): 40
Plant response rating, Barley (winter) (winter barley; [6]): 50
Plant response rating, Barley (winter) (winter barley; [7]): 70

CC(C)N(C(=O)n1oc(=O)n(CCC2OCCO2)c1=O)c1ccc(F)cc1 [Compound 219]
Plant response rating, Blackgrass (blackgrass [1]; [7]): 0
Blackgrass plant response rating (0 to 100 scale) (blackgrass [1]; Rate 250 g/ha): 20
Plant response rating, Blackgrass (blackgrass [1]; [16]): 70
Plant response rating, Wheat (winter) (winter wheat [2]; [7]): 35
Wheat (winter) plant response rating (0 to 100 scale) (winter wheat [2]; Rate 250 g/ha): 60
Plant response rating, Wheat (winter) (winter wheat [2]; [16]): 60
Blackgrass plant response rating (blackgrass [3]; [8]): 7
Blackgrass plant response rating (blackgrass [3]; [9]): 10
Plant response rating, Blackgrass (blackgrass [3]; [10]): 10
Blackgrass plant response rating (blackgrass [3]; [11]): 5
Blackgrass plant response rating (blackgrass [3]; [12]): 7
Blackgrass plant response rating (blackgrass [3]; [13]): 10
Plant response rating (0 to 10; 0 is no effect, 10 is complete control), Blackgrass (blackgrass [3]; Rate 250 g/ha, Postemergence): 8
Blackgrass plant response rating (blackgrass [3]; [14]): 8
Velvetleaf plant response rating (velvetleaf; [8]): 3
Velvetleaf plant response rating (velvetleaf; [9]): 7
Plant response rating, Velvetleaf (velvetleaf; [10]): 10
Velvetleaf plant response rating (velvetleaf; [11]): 0
Velvetleaf plant response rating (velvetleaf; [12]): 0
Velvetleaf plant response rating (velvetleaf; [13]): 6
Plant response rating (0 to 10; 0 is no effect, 10 is complete control), Velvetleaf (velvetleaf; Rate 250 g/ha, Postemergence): 2
Velvetleaf plant response rating (velvetleaf; [14]): 4
Bedstraw plant response rating (bedstraw; [8]): 1
Bedstraw plant response rating (bedstraw; [9]): 8
Plant response rating, Bedstraw (bedstraw; [10]): 9
Bedstraw plant response rating (bedstraw; [11]): 6
Bedstraw plant response rating (bedstraw; [12]): 6
Bedstraw plant response rating (bedstraw; [13]): 5
Plant response rating (0 to 10; 0 is no effect, 10 is complete control), Bedstraw (bedstraw; Rate 250 g/ha, Postemergence): 8
Bedstraw plant response rating (bedstraw; [14]): 8
Wheat plant response rating (wheat; [8]): 3
Wheat plant response rating (wheat; [9]): 8
Plant response rating, Wheat (wheat; [10]): 9
Wheat plant response rating (wheat; [11]): 5
Wheat plant response rating (wheat; [12]): 6
Wheat plant response rating (wheat; [13]): 5
Plant response rating (0 to 10; 0 is no effect, 10 is complete control), Wheat (wheat; Rate 250 g/ha, Postemergence): 7
Wheat plant response rating (wheat; [14]): 7
Plant response rating, Wheat (winter) (winter wheat [4]; [15]): 20
Wheat (winter) plant response rating (winter wheat [4]; Rate 250 g/ha, 0 to 100 scale where 0 is no effect and 100 is complete control): 50
Plant response rating, Wheat (winter) (winter wheat [4]; Rate 500 g/ha, 0 is no effect, 100 is complete control): 60
Plant response rating, Green foxtail (green foxtail; [7]): 65
Green foxtail plant response rating (0 to 100 scale) (green foxtail; Rate 250 g/ha): 60
Plant response rating, Green foxtail (green foxtail; [16]): 70
Plant response rating, I. Ryegrass (Italian ryegrass; [7]): 30
I. Ryegrass plant response rating (0 to 100 scale) (Italian ryegrass; Rate 250 g/ha): 55
Plant response rating, I. Ryegrass (Italian ryegrass; [16]): 70
Plant response rating, Wild oat (wild oat; [7]): 30
Wild oat plant response rating (0 to 100 scale) (wild oat; Rate 250 g/ha): 50
Plant response rating, Wild oat (wild oat; [16]): 60
Plant response rating, Barley (winter) (winter barley; [7]): 20
Barley (winter) plant response rating (0 to 100 scale) (winter barley; Rate 250 g/ha): 30
Plant response rating, Barley (winter) (winter barley; [16]): 70
